Experiments:
[1] = Water solubility; type: physicochemical
[2] = tested on: H358 spheroids; test: Multicellular tumour spheroid (MTS) growth; type: cell-based
Procedure: H358 cells were cultured in 3-Dimensions. At day 1, the compound was added at the concentration of 0.6 μM. The spheroid growth was measured each day and expressed as a growth ratio (Vd−Vo/Vo); d for day and o for the starting day. The evolution of the volume of the spheroids is expressed in function of the time (in days). Spheroids grown in the presence of C1 are indicated by triangles whereas rectangles indicate spheroids treated by C14; control spheroids are visualized by diamonds.
In order to get some insight in C14 effects towards organized cells, the inventors have followed H358 spheroid expansion (FIG. 9). Organized 3-dimension spheroids were treated by either C14 (0.5 μM) or C1 (0.5 μM) or DMSO (control). […] C14 was thus found efficient to prevent cell growth even when cells mimicked tissue organization.
The inventors applied the hanging-drop method to produce H358 spheroids of similar diameters. 1400 cells were suspended on the lid of an agar coated 24-petri dishes containing culture medium. 48 h later, the spheroids were transferred to the culture medium. Spheroid volumes were measured before (Day 0) and during the drug treatment (Day N). H358 spheroids were treated by compounds at the concentration of 0.6 μM. Control H358 spheroids were grown under the same conditions without drug treatment. The size of each spheroid was determined by measuring 2 diameters (d1 and d2) using an inverted microscope. The volume was calculated according to the formula: V=4/3π^3 where r=½√d1xd2. Spheroid growth was calculated by measuring the variations in volume and compared to the initial volume V0. The growth ratio was defined as (Vd−Vo)/Vo. Data are the mean of at least three determinations on different spheroids.

[3] = biological target: Jak2 (Homo sapiens, UniProt O60674); test: Kinase profiling in vitro at 1 μM; type: biochemical; conditions: 1 microMolar in vitro, read-out: Percent of remaining activity
Procedure: (§1) The specificity of C14 was tested, in vitro, against 121 kinases representative of the kinome. Assays run in duplicate, at the concentration of 1 μM, were performed by MRC (Dundee, UK). Results are represented in FIG. 1. The main targets are highlighted in FIG. 1B. The profiling was performed at the MRC (Dundee University), in duplicate, on a set of 121 kinases. The panel is representative of the major different classes of kinases. Compounds were used at the concentration of 1 μM. In vitro, IC50 were determined on recombinant kinases by Reaction biology Corp (USA).

[4] = tested on: VEGFR; test: Kinase profiling in vitro at 1 μM; type: biochemical; conditions: 1 microMolar in vitro
Procedure: as §1

[5] = biological target: IRAK4 (Homo sapiens, UniProt Q9NWZ3); test: Kinase profiling in vitro at 1 μM; type: biochemical; conditions: 1 microMolar in vitro, read-out: Percent of remaining activity
Procedure: as §1

[6] = biological target: MLK1 (Homo sapiens, UniProt P80192); test: Kinase profiling in vitro at 1 μM; type: biochemical; conditions: 1 microMolar in vitro, read-out: Percent of remaining activity
Procedure: as §1

[7] = biological target: IR (Homo sapiens, UniProt P06213); test: Kinase profiling in vitro at 1 μM; type: biochemical; conditions: 1 microMolar in vitro, read-out: Percent of remaining activity
Procedure: as §1

[8] = tested on: Phk; test: Kinase profiling in vitro at 1 μM; type: biochemical; conditions: 1 microMolar in vitro
Procedure: as §1

[9] = tested on: Quiescent H358 cells; test: Viability of quiescent (serum-deprived) cells; type: cell-based; conditions: 0.5 μM, 96 hours post-treatment, absence of serum
Procedure: FIG. 5: Quiescent H358 cells were incubated with the compound, for 96 h, in the absence of serum. Three different concentrations of C14 were used and live cells were estimated with MTT (Promega). In the control only DMSO was added.
H358 cells were deprived in serum for 2 days and then incubated with the compound, for 96 h, still in the absence of serum. At the concentration (0.5 μM) that induced death of more than 50% of cycling cells, 90% of the cells are still alive 96 hours post-treatment (FIG. 5). C14 is thus not deleterious for quiescent cells.
Cells were drawn to quiescence by serum withdrawn. After two days of serum deprivations cells were incubated with different concentrations of compounds for 96 hours, serum being still omitted. The viability is determined as described above.

[10] = biological target: T1, NUAK1 (Homo sapiens, UniProt O60285); test: Nuak1 inhibition in cellulo: LATS1 stabilization by western blot; type: cell-based; conditions: HeLa cells treated ON; whole cell extracts, WB, compared to control
T1 construct: Reaction biology Corp (USA), service
T1 sequence (O60285 1-661): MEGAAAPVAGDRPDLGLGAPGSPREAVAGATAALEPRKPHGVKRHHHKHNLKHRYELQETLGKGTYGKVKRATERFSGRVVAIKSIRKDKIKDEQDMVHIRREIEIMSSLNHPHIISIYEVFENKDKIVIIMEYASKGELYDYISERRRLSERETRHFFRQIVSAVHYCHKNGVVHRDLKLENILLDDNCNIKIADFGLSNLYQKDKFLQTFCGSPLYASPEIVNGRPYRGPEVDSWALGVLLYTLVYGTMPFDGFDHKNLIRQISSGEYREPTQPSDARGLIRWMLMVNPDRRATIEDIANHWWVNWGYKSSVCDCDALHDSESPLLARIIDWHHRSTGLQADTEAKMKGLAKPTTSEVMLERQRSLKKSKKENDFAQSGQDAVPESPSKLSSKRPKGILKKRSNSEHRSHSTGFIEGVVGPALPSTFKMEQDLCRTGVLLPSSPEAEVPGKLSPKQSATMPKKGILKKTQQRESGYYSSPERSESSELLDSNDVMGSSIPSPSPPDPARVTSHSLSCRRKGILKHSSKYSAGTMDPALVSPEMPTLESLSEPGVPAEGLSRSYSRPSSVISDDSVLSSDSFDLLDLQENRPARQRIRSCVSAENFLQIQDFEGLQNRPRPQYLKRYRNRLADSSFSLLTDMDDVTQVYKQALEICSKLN
Procedure: HeLa cells were treated ON by C21 (also named CH21) and C14M and compared to the control (C0). Whole cell extracts were analyzed by WB with anti LATS1 monoclonal antibody and the loading was quantified through the tubulin signal.
Therefore the possibility of inhibiting Nuakl, in cellulo, was evaluated through the stabilization of the Large Antigen Tumour Suppressor LATS1.
Cells were treated by compounds, harvested and lyzed in 9M urea then supplemented with Laemmli sample buffer. Cell extracts were subjected to SDS-PAGE and transferred to nitrocellulose filter (GE Healthcare). After blocking with 5% non-fat milk in PBS for at least 1 hour, the membranes were incubated with the primary antibodies. The following antibodies were used: phospho-Histone H3 Ser10 (1:2000, Upstate Biotechnology), anti LAST1 (Cell signalling), anti Aurora B (epitomics) and anti alpha-tubulin (Sigma) Anti-rabbit horseradish peroxidase (1:5000, GE Healthcare) was used as secondary antibodies. Bands were visualized by ECL technique (Amersham Bioscience).

Chain of MLK1 (P80192 whole entry, species assumed): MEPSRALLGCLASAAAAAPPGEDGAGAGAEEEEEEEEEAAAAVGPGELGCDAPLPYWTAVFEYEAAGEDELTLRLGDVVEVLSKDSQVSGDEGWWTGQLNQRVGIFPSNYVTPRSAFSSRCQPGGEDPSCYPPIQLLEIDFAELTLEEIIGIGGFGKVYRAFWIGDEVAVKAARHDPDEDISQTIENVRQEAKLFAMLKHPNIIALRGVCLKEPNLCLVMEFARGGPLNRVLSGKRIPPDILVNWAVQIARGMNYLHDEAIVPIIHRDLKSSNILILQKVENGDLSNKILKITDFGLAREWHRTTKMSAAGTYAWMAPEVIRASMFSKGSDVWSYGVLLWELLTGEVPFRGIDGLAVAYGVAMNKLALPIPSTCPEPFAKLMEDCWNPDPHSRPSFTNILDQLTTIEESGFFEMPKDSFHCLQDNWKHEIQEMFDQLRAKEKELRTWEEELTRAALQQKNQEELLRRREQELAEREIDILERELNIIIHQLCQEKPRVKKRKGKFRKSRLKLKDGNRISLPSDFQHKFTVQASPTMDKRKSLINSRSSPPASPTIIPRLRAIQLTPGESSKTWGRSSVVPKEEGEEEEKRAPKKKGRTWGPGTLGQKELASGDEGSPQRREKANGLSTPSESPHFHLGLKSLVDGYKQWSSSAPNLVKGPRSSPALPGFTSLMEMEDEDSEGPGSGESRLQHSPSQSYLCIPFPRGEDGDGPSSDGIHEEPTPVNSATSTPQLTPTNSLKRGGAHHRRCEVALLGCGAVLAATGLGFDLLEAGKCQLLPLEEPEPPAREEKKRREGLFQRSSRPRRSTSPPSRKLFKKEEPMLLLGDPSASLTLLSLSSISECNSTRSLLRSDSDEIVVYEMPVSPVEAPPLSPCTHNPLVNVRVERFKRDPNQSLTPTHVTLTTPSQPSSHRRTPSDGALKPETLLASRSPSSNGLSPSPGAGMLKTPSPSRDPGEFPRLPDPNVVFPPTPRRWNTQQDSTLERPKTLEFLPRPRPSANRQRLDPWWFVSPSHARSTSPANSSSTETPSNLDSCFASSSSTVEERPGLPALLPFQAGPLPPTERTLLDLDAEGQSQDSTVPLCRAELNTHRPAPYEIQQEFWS
Chain of IR (P06213 28-1382): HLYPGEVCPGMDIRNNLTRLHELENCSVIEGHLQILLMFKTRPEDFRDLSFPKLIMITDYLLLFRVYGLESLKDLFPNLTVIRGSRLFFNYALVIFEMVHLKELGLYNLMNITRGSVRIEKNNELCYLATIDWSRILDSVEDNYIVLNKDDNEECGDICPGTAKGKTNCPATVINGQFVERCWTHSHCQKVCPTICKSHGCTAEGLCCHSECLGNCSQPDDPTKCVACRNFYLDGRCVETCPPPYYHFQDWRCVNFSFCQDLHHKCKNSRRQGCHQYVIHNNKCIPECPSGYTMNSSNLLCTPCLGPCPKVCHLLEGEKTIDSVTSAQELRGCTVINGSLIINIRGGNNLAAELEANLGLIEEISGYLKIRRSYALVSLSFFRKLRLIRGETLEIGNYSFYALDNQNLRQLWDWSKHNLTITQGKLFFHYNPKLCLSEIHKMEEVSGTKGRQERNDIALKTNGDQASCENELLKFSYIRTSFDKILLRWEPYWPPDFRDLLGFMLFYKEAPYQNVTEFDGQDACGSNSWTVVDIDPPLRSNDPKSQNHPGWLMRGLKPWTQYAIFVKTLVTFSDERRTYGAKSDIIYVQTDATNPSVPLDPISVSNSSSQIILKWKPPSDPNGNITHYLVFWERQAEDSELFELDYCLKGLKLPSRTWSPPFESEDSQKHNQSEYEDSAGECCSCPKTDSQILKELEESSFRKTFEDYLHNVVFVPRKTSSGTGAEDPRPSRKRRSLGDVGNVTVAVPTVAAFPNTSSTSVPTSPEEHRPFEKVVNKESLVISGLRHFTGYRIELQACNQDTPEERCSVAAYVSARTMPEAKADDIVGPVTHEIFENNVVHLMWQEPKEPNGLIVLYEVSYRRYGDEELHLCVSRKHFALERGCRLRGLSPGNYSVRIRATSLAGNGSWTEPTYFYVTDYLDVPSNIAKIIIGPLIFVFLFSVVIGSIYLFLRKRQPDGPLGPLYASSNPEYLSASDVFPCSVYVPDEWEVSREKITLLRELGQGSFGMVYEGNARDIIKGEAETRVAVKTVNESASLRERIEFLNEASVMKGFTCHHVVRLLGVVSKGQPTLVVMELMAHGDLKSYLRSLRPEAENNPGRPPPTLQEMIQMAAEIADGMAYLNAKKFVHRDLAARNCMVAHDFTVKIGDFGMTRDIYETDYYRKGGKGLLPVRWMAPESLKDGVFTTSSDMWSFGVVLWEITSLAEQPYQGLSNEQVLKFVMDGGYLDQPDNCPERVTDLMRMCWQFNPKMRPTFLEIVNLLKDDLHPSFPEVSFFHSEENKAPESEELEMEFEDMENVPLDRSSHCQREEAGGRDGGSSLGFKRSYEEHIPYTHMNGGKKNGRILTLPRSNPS
Chain of Jak2 (O60674 whole entry, species assumed): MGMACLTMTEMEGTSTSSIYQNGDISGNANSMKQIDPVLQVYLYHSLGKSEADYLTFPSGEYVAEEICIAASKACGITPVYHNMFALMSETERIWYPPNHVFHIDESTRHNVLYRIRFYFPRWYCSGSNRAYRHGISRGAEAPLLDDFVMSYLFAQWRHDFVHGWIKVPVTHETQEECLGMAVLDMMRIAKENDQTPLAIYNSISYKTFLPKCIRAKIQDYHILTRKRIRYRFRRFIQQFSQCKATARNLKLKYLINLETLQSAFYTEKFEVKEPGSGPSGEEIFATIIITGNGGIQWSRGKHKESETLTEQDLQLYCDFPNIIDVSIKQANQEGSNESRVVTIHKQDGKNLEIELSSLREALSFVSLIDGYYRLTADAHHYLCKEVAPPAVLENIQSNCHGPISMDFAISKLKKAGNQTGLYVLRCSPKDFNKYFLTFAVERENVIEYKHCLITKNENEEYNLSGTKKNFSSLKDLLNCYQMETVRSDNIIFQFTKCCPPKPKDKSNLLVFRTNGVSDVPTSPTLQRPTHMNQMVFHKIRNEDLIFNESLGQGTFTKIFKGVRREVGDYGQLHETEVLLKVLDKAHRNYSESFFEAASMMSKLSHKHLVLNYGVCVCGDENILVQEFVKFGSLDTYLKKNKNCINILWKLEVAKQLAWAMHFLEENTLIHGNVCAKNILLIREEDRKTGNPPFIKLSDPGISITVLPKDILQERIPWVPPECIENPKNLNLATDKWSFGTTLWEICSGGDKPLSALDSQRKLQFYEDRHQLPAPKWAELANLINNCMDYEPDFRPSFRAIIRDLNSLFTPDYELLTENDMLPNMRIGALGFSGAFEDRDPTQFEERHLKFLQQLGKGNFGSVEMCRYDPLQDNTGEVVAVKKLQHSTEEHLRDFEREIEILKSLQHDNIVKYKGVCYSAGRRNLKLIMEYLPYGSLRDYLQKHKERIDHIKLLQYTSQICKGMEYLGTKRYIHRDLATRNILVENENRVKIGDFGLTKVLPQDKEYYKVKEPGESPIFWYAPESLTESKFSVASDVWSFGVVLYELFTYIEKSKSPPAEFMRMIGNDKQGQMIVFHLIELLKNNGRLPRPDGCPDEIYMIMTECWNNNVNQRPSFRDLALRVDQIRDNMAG
Chain of IRAK4 (Q9NWZ3 whole entry, species assumed): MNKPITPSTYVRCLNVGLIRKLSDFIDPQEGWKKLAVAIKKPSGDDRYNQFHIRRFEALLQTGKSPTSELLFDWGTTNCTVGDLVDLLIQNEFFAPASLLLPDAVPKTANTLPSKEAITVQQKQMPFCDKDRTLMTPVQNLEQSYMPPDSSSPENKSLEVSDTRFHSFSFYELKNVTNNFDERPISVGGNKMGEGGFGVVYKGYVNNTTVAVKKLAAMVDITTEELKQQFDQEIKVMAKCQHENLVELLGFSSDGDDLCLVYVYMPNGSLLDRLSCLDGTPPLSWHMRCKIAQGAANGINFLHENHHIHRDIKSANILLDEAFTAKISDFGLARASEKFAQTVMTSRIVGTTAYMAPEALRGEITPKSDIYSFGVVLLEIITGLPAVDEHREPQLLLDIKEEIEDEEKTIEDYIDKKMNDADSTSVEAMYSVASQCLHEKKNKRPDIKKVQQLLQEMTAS

solubility in water (in words) [1]	remaining activity at 1 µM [3] [%]	Percent of remaining activity [4] [%]	remaining activity at 1 µM [5] [%]	remaining activity at 1 µM [6] [%]	remaining activity at 1 µM [7] [%]	Percent of remaining activity [8] [%]	LATS1 protein level (in words) [10]	Structure (SMILES)	duration of effect on spheroid growth ([2]; 0.5 μM, 0.6 μM)	effect on 3D-H358 cell (spheroid) growth (in words) ([2]; 0.5 μM, 0.6 μM)	spheroid size at day 10 (in words) ([2]; day 10, compared with C1-treated spheroids)	cells still alive [9] [%]
water soluble	21	16	25	27	15	10	–	Cc1c[nH]c(=O)c2c1[nH]c1ccc3cc(OCCN(C)C)ccc3c12 [Compound C14, 3-(2-N,N-Dimethylaminoethoxy)-8-methyl-7H,10H-benzo[e]pyrido(4,3-b)indol-11-one]	at least 5 days	affected significantly	smaller than their counterparts treated by C1	90
–	–	–	–	–	–	–	large increase	Cc1cncc2c1[nH]c1ccc3cc(OCCN(C)C)ccc3c12 [CH21, 3-(2-N,N-dimethylaminoethyloxy)-8-methyl-7H-benzo[e]pyrido(4,3-b)indole]	–	–	–	–
